Measurements: ChEMBL document CHEMBL3286215, “Preparation, anticholinesterase activity and molecular docking of new lupane derivatives” (Bioorg Med Chem, 2014)
Calls of active or inactive are those of the source. The calls are words filed in the database; no cut-off is given here.

What was measured:
[1] = target: Acetylcholinesterase (Torpedo californica) (UniProt P04058); assay: Inhibition of Pacific electric ray AChE using acetylthiocholine iodide as substrate at 200 uM after 60 mins by Ellman's method relative to control; settings: Tetronarce californica
Sequence of Acetylcholinesterase (Torpedo californica) (P04058 22-564 limits assumed): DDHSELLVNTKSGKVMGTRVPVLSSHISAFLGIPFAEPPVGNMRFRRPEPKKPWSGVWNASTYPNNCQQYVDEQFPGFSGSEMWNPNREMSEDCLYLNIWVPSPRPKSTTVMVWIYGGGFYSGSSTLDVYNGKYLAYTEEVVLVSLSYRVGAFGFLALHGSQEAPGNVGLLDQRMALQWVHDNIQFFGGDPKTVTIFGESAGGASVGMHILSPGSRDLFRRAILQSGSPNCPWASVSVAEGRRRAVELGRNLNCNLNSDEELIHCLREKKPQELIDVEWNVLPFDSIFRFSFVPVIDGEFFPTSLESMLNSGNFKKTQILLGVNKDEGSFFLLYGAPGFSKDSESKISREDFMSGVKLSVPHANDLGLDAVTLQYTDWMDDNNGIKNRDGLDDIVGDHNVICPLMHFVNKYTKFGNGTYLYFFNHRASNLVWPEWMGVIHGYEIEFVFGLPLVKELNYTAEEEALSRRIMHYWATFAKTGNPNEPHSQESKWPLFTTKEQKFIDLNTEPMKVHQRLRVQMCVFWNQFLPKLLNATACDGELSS

[2] = target: Cholinesterase (Equus caballus) (UniProt P81908); assay: Inhibition of BChE in horse serum using butyrylthiocholine iodide as substrate at 200 uM after 120 mins by Ellman's method relative to control
Sequence of Cholinesterase (Equus caballus) (P81908 whole entry): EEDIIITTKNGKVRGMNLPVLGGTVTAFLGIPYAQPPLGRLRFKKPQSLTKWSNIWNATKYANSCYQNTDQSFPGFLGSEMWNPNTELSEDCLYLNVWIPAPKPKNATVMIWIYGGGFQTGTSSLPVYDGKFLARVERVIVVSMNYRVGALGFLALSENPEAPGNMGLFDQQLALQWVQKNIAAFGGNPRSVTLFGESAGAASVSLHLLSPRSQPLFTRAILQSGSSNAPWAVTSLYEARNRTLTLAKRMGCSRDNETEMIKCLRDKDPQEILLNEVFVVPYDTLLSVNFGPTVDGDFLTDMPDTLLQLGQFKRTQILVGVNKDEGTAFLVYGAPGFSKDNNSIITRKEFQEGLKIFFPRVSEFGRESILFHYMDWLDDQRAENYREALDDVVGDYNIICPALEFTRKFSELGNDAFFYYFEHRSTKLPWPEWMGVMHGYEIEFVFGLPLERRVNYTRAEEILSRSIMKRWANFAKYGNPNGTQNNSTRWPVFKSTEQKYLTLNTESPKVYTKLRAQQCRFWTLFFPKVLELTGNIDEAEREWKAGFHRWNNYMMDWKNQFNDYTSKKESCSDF

[3] = Selectivity index, ratio of IC50 for Pacific electric ray AChE to IC50 for BChE in horse serum
Acetylcholinesterase [4] = target: T1, Acetylcholinesterase (Torpedo californica, UniProt P04058)
T1 sequence (P04058 whole entry): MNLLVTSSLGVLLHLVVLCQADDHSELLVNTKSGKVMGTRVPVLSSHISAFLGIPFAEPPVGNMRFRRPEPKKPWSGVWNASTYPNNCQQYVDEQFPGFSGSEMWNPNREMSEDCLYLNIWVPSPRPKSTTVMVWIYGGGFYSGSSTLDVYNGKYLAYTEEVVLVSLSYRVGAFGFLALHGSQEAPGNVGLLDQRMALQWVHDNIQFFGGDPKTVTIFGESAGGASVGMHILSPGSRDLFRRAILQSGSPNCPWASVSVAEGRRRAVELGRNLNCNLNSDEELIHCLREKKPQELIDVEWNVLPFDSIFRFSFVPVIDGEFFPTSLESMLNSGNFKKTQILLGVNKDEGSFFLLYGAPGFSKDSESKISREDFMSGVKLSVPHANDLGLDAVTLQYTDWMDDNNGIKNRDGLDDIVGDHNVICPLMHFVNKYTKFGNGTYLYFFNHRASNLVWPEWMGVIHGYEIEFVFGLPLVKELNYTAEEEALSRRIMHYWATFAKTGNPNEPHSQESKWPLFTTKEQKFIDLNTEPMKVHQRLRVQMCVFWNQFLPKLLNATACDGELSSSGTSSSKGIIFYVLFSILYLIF
Description: Inhibition of Pacific electric ray AChE using acetylthiocholine iodide as substrate after 60 mins by Ellman's method

Cholinesterase = Cholinesterase (Equus caballus, UniProt P81908)
Sequence of Cholinesterase (P81908 whole entry): as the sequence (P81908 whole entry) above
Description: Inhibition of BChE in horse serum using butyrylthiocholine iodide as substrate after 120 mins by Ellman's method

Acetylcholinesterase [5] = target: T1, Acetylcholinesterase; assay: Uncompetitive inhibition of Pacific electric ray AChE using acetylthiocholine as substrate by Lineweaver-Burk plot analysis; parameters: species or system Tetronarce californica

SMILES	inhibition [1]	inhibition [2] [%]	Ratio IC50 [3]	IC50 (Acetylcholinesterase [4]) [µM]	IC50 (Cholinesterase) [µM]	Ki (Acetylcholinesterase [5]) [µM]
C=C(C)[C@@H]1CC[C@@]2(C)[C@H]1[C@H]1CC[C@@H]3[C@@]4(C)CC[C@H](OS(=O)(=O)O)C(C)(C)[C@@H]4CC[C@@]3(C)[C@]1(C)C[C@@H]2OS(=O)(=O)O	71%	78.5	2.95	190	64.3	
C=C(C)[C@@H]1CC[C@]2(C)C(=O)C[C@]3(C)[C@H](CC[C@@H]4[C@@]5(C)CCC(=O)C(C)(C)[C@@H]5CC[C@]43C)[C@@H]12	6.4%	33.4				
C=CCCC(=O)O[C@H]1CC[C@]2(C)[C@H]3CC[C@@H]4[C@H]5[C@H](C(=C)C)CC[C@]5(C)[C@@H](OC(=O)CCC=C)C[C@@]4(C)[C@]3(C)CC[C@H]2C1(C)C	6.4%	29.3				
C=C(C)[C@@H]1CC[C@@]2(C)[C@H]1[C@H]1CC[C@@H]3[C@@]4(C)CC[C@H](OC(=O)CCCCC(=O)O)C(C)(C)[C@@H]4CC[C@@]3(C)[C@]1(C)C[C@@H]2OC(=O)CCCCC(=O)O	20.2%	89.2	> 2.48	> 200	80.6	
C=C(C)[C@@H]1CC[C@@]2(C)[C@H]1[C@H]1CCC3[C@@]4(C)CC[C@H](O)C(C)(C)[C@@H]4CC[C@@]3(C)[C@]1(C)C[C@@H]2O (some centres not stated) [CALENDULADIOL]				> 200	> 200	
C=C(COS(=O)(=O)O)[C@@H]1CC[C@@]2(C)[C@H]1[C@H]1CC[C@@H]3[C@@]4(C)CC[C@H](OS(=O)(=O)O)C(C)(C)[C@@H]4CC[C@@]3(C)[C@]1(C)C[C@@H]2OS(=O)(=O)O	12.9%	50.2		> 200	> 200	
CC1(C)[C@@H](O)CC[C@]2(C)[C@H]3CC[C@@H]4[C@H]5[C@H]([C@@]6(C)CO6)CC[C@]5(C)[C@@H](O)C[C@@]4(C)[C@]3(C)CC[C@@H]12	24.3%	19.4		> 200		
C=C(C)[C@@H]1CC[C@@]2(C)[C@H]1[C@H]1CC[C@@H]3[C@@]4(C)CC[C@H](O)C(C)(C)[C@@H]4CC[C@@]3(C)[C@]1(C)C[C@@H]2OC(C)=O	5.6%	51.2			> 200	
C=C(C=O)[C@@H]1CC[C@@]2(C)[C@H]1[C@H]1CC[C@@H]3[C@@]4(C)CC[C@H](O)C(C)(C)[C@@H]4CC[C@@]3(C)[C@]1(C)C[C@@H]2O	43.5%	42		> 200		
CC1(C)[C@@H](OS(=O)(=O)O)CC[C@]2(C)[C@H]3CC[C@@H]4[C@H]5[C@H]([C@@]6(C)CO6)CC[C@]5(C)[C@@H](OS(=O)(=O)O)C[C@@]4(C)[C@]3(C)CC[C@@H]12	13.7%	43.7		> 200	> 200	
C=C(C=O)[C@@H]1CC[C@@]2(C)[C@H]1[C@H]1CC[C@@H]3[C@@]4(C)CC[C@H](OC(C)=O)C(C)(C)[C@@H]4CC[C@@]3(C)[C@]1(C)C[C@@H]2OC(C)=O	6.8%	45.8			> 200	
C=C(CO)[C@@H]1CC[C@@]2(C)[C@H]1[C@H]1CC[C@@H]3[C@@]4(C)CC[C@H](OS(=O)(=O)O)C(C)(C)[C@@H]4CC[C@@]3(C)[C@]1(C)C[C@@H]2OS(=O)(=O)O	10.8%	56.8	> 1.7	> 200	188	
C=C(C)[C@@H]1CC[C@@]2(C)[C@H]1[C@H]1CC[C@@H]3[C@@]4(C)CC[C@H](OC(=O)c5ccccc5)C(C)(C)[C@@H]4CC[C@@]3(C)[C@]1(C)C[C@@H]2OC(=O)c1ccccc1	3.9%	39.9				
C=C(CO)[C@@H]1CC[C@@]2(C)[C@H]1[C@H]1CC[C@@H]3[C@@]4(C)CC[C@H](O)C(C)(C)[C@@H]4CC[C@@]3(C)[C@]1(C)C[C@@H]2O	40.4%	32		> 200		
C=C(COC(C)=O)[C@@H]1CC[C@@]2(C)[C@H]1[C@H]1CC[C@@H]3[C@@]4(C)CC[C@H](OC(C)=O)C(C)(C)[C@@H]4CC[C@@]3(C)[C@]1(C)C[C@@H]2OC(C)=O	7.2%					
C=C(C)[C@@H]1CC[C@@]2(C)[C@H]1[C@H]1CC[C@H]3[C@@]4(C)CC[C@H](O)C(C)(C)[C@@H]4CC[C@@]3(C)[C@]1(C)C[C@@H]2O	8.1%	42				
C=C(C)[C@@H]1CC[C@@]2(C)[C@H]1[C@H]1CC[C@@H]3[C@@]4(C)CC[C@H](OC(=O)c5ccc(Br)cc5)C(C)(C)[C@@H]4CC[C@@]3(C)[C@]1(C)C[C@@H]2OC(=O)c1ccc(Br)cc1	inactive	18.4				
C=C(C)[C@@H]1CC[C@@]2(C)[C@H]1[C@H]1CC[C@@H]3[C@@]4(C)CC[C@H](OC(C)=O)C(C)(C)[C@@H]4CC[C@@]3(C)[C@]1(C)C[C@@H]2OC(C)=O	3.3%	35.2				
C=C(C=O)[C@@H]1CC[C@]2(C)C(=O)C[C@]3(C)[C@H](CC[C@@H]4[C@@]5(C)CCC(=O)C(C)(C)[C@@H]5CC[C@]43C)[C@@H]12	21.7%	86.5	> 9.3	> 200	21.5	
CC(C)[C@@H]1CC[C@@]2(C)[C@H]1[C@H]1CC[C@@H]3[C@@]4(C)CC[C@H](OS(=O)(=O)O)C(C)(C)[C@@H]4CC[C@@]3(C)[C@]1(C)C[C@@H]2OS(=O)(=O)O	98.9%	87.8	0.56	58.8	104	144
C=C(C)[C@@H]1CC[C@@]2(C)[C@H]1[C@H]1CC[C@@H]3[C@@]4(C)CC[C@H](OC(C)=O)C(C)(C)[C@@H]4CC[C@@]3(C)[C@]1(C)C[C@@H]2O	1.9%	46.2			> 200	
CC(C)[C@@H]1CC[C@@]2(C)[C@H]1[C@H]1CC[C@@H]3[C@@]4(C)CC[C@H](O)C(C)(C)[C@@H]4CC[C@@]3(C)[C@]1(C)C[C@@H]2O	24.3%	14.3		> 200		
C=C(C=O)[C@@H]1CC[C@@]2(C)[C@H]1[C@H]1CC[C@@H]3[C@@]4(C)CC[C@H](OS(=O)(=O)O)C(C)(C)[C@@H]4CC[C@@]3(C)[C@]1(C)C[C@@H]2OS(=O)(=O)O	6.1%	18.4				
